To fix the notation:
T1: I-A^b (Mus musculus, UniProt P14434+P14483)
T1 sequence (P14434 24-218 limits assumed): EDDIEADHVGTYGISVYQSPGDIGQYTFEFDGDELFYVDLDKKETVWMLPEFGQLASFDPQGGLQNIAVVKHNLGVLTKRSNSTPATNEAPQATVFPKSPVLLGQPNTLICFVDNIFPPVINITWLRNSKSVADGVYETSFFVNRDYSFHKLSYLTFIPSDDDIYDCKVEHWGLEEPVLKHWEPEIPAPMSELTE
T1 sequence (P14483 28-226 limits assumed): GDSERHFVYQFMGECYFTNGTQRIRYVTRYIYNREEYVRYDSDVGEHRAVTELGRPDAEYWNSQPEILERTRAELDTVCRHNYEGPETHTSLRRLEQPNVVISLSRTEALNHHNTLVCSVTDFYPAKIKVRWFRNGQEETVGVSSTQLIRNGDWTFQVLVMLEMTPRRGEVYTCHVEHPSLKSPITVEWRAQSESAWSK

Where no end group is shown, it is not given here. [ ]: non-standard residue; d: D form.

The first experiment deals with T1, I-A^b. The experiment can be described thus: biochemical.
Description: A fluorescence polarization (FP) assay was used to measure the IC50 of using N-terminally-acetylated CLIP peptide labeled with Alexa Fluor 488 tetrafluorophenyl ester (Invitrogen, Carlsbad, CA) via the primary amine at K3 as probe peptide as previously described ([34]). The binding reactions were carried in buffer conditions of 100 mM sodium citrate, 50 mM sodium chloride, 0.1% octyl β-D-glucopyranoside, 5 mM ethylenediaminetetraacetic acid, 0.1% sodium azide, 0.2 mM iodoacetic acid, 1 mM dithiothreitol). […] Thrombin is added during all the reactions at a concentration of 1U/ug and inactivated after 3hrs of reaction using 0.1mM phenylmethanesulfonyl fluoride. […] For calculating IC50 values, 100 nM I-A^b-3R was incubated with 25 nM Alexa488-labeled CLIP probe peptide, in combination with a serial dilution of test peptides, beginning at 100 µM followed by 5-fold dilutions in presence of 0.5µM HLA-DM. The reaction mixture was incubated at 37°C. The capacity of each test peptide to compete for binding of probe peptide was measured by FP after 72 h at 37°C. The assay was read using a Victor X5 Multilabel plate reader (PerkinElmer, Shelton, CT). FP values were converted to fraction bound by calculating [(FP_sample - FP_free)/(FP_no_comp - FP_free)], where FP_sample represents the FP value in the presence of test peptide; FP_free represents the value for free Alexa488-conjugated CLIP peptide; and FP_no_comp represents values in the absence of competitor peptide. We plotted fraction bound versus concentration of test peptide and fit the curve to the equation y = 1/(1 +[pep]/IC50), where [pep] is the concentration of test peptide, y is the fraction of probe peptide bound at that concentration of test peptide, and IC50 is the 50% inhibitory concentration of the test peptide.
Usually IC50 stands for the midpoint of a concentration-inhibition curve. AAYLWVGAGASEAEKT: half-maximal inhibition (IC50) was put at 276 nM. The same measure, in the same setting: then AGKLQDQGPDVLLAKVS, with 378 nM; and AGTGVDNVDLEAATR, with 57500 nM; and AMLQVLGPKPALPEG, with 1170 nM. In turn, APGHYTYSSPHSGSIH returned an IC50 of 1580 nM. Same read-out and setting: for APTSALGPKASPAPS the value was 2300 nM; for AQRAGYKAAIVHNVDS, 2420 nM. ARYIYGKPVQGVAYTR gave a half-inhibitory concentration (IC50) of 153 nM. ATVSWRAPTAQVESFR gave an IC50 of 407 nM. Same read-out and setting: for AVLLPKKSSATVGPKAPAVGK the value was 13600 nM; for DGELTYENVQVSPVPGGPP, 1360 nM.

As to EKPVPAAPVPSPVAPAP, the half-inhibitory concentration (IC50) stood at 1140 nM.

Consider FPKPPSYNVATTLPSYDE, for which half-maximal inhibition (IC50) required 231 nM. On the same count and under the same terms, then GALLLNAPVVSITQGR, with 1660 nM. On the same count and under the same terms, then GGSTDYNAAFISRLS, with 4960 nM; and GIDPYDQPNAIYIER, with 167 nM; and GIVNLKSPKTTSATKI, with 12800 nM. Consider GKYTYGKPVPGHVKI, for which the IC50 came to 399 nM.

For GPGSREAASPVAITVQE, the 50% inhibitory concentration (IC50) is 467 nM.

Turning to GPPPYHESLAGASQPP, the 50% inhibitory concentration (IC50) is 1500 nM. Still for that read-out and setting: then GRKFVYAGSNSGVVQ, with 1480 nM; and GTTGQLFFPEVNKNHR, with 2640 nM. Still for that read-out and setting: then HIADLAGNPEVILPVPA, with 13900 nM. The same measure, in the same setting: then HLNTYDGSHTLRVSQS, with 1360 nM; and HNYEGPETHTSLRRL, with 797 nM; and IRRYGVSQPDAVAAWK, with 250 nM.

ISKQEYDESGPSIVHR gave a half-inhibitory concentration (IC50) of 15200 nM. Still for that read-out and setting: then ITPSYVAFTPEGERL, with 1890 nM. The same measure, in the same setting: for IYEAYRQGQANLEAL [IYEAYRQGQANLEAL] the value was 1370 nM. For KDITTVNFPPALASGGG, half-maximal inhibition (IC50) was put at 970 nM. Same read-out and setting: for KPSIFHDAKSEIIKGHA the value was 4960 nM; for KPTVTVVSPLPNDSINPQP, 2250 nM. On the same count and under the same terms, for KWKALYTDPKSSETA the value was 3450 nM; for LLPKYSFAKPSIVSDK, 179 nM. LNLPTGIPIVYEL registered an IC50 of 54400 nM. Molecule LPGELAKHAVSEGTKA yielded an IC50 of 32000 nM.

Take LPQEKYVTSAPMPEPG: the 50% inhibitory concentration (IC50) turned out to be 562 nM. The same measure, in the same setting: for LSSGFSLEDPQTHSNRIY the value was 13300 nM.

LVRYTQKAPQVSTPTLV showed a 50% inhibitory concentration (IC50) of 765 nM. Regarding NDWTVDHPQTLFAWEG, inhibition was half-maximal at 445 nM (IC50). Same read-out and setting: for NVLRIINEPTAAAIA the value was 337 nM; for PGQGTTGQLFFPEVNKN, 2900 nM. Same read-out and setting: for PHPYPALTPEQKKELSDIAHRIVAPGKG the value was 10900 nM; for PSRYITPDQLADLYK, 2910 nM; for QVLSWSSPVGSRTLA, 152 nM. As for RVLIPYQGPSSDYVVVK, the half-inhibitory concentration (IC50) was 275 nM. On the same count and under the same terms, for RVTIAQGGVLPNIQ the value was 26000 nM.

SDLHAFSGSAAWDDS gave a 50% inhibitory concentration (IC50) of 1090 nM.

SDLHAFSGSAAWDDSAG returned a concentration for half-maximal inhibition (IC50) of 1920 nM. Same read-out and setting: then SLRRLEQPNVVISLSR, with 93.8 nM; and TNPIITPVAQENQ, with 1740 nM; and VEEDAESEDEDEEDVKLLGMSGK, with 111000 nM.

The molecule VGTARYMAPEVLESR registered a half-maximal inhibitory concentration (IC50) of 197 nM.

Molecule VGTARYMAPEVLESRM showed an IC50 of 306 nM. Same read-out and setting: then YSMGMHTYQVG, with 74100 nM. YVTQFHPPHIEIQ registered an IC50 of 1070 nM.

The next experiment has as its target soluble I-A^b-3R, mouse MHC-II protein (recombinant I-A^b) (mouse). Briefly: fluorescence polarisation; competition: 100 nM I-A^b-3R (3R cut off by thrombin, 1 U/ug), 25 nM Alexa488-labeled CLIP probe peptide, test peptide from 100 uM in 5-fold dilutions, 0.5 uM HLA-DM, read after 72 h at 37 C; 100 mM sodium citrate, 50 mM NaCl, 0.1% octyl glucoside, 5 mM EDTA, 1 mM DTT; three independent experiments, mean and SD.
Take HIADLAGNPEVILPVPA: the IC50 was found to be 13900 nM.

As for EKPVPAAPVPSPVAPAP [… (Hematological and neurological expressed 1 protein peptide)], the IC50 worked out at 1140 nM. The same measure, in the same setting: then LSSGFSLEDPQTHSNRIY [… (Heat shock protein HSP 90-beta peptide)], with 13300 nM; and GTTGQLFFPEVNKNHR, with 2640 nM; and TNPIITPVAQENQ [… (Apolipoprotein E peptide)], with 1740 nM. Still for that read-out and setting: then SDLHAFSGSAAWDDS, with 1090 nM; and RVLIPYQGPSSDYVVVK, with 275 nM; and APGHYTYSSPHSGSIH [… (Prostaglandin-H2 D-isomerase isoform 2 peptide)], with 1580 nM. Same read-out and setting: for GKYTYGKPVPGHVKI [… (Murinoglobulin-1 peptide)] the value was 399 nM; for GRKFVYAGSNSGVVQ [… (Semaphorin-4D peptide)], 1480 nM. Consider FPKPPSYNVATTLPSYDE [… (NEDD4 family-interacting protein 1 peptide)], for which the IC50 stood at 231 nM. On to LVRYTQKAPQVSTPTLV [… (Serum albumin peptide)], for which the half-maximal inhibitory concentration (IC50) came to 765 nM.

As for GALLLNAPVVSITQGR [… (L-amino-acid oxidase isoform 2 peptide)], the IC50 was determined as 1660 nM. The same measure, in the same setting: then YVTQFHPPHIEIQ [… (Beta-2-microglobulin peptide)], with 1070 nM. Consider HNYEGPETHTSLRRL, for which the half-maximal inhibitory concentration (IC50) came out at 797 nM. Still for that read-out and setting: then ARYIYGKPVQGVAYTR [… (Complement C4-B peptide)], with 153 nM; and GIDPYDQPNAIYIER, with 167 nM; and GIVNLKSPKTTSATKI [… (Tissue alpha-L-fucosidase peptide)], with 12800 nM. Turning to PGQGTTGQLFFPEVNKN, the IC50 stood at 2900 nM. On the same count and under the same terms, for KPTVTVVSPLPNDSINPQP [… (Protein EVI2B peptide)] the value was 2250 nM. Still for that read-out and setting: then SDLHAFSGSAAWDDSAG, with 1920 nM; and KWKALYTDPKSSETA [… (Retinoid-inducible serine carboxypeptidase peptide)], with 3450 nM; and AAYLWVGAGASEAEKT, with 276 nM. On the same count and under the same terms, for GPPPYHESLAGASQPP [… (Protein shisa-5 isoform 2 peptide)] the value was 1500 nM; for QQLAFKQPSSAYAAFN [q… (Complement C3 peptide)], 170 nM. On to ATVSWRAPTAQVESFR [… (Tenascin peptide)], for which the IC50 was 407 nM. Still for that read-out and setting: then VGTARYMAPEVLESRM, with 306 nM. As for DGELTYENVQVSPVPGGPP [… (B-cell differentiation antigen CD72 peptide)], the concentration for half-maximal inhibition (IC50) came to 1360 nM.

On to AMLQVLGPKPALPEG, for which the IC50 was 1180 nM. Still for that read-out and setting: then VGTARYMAPEVLESR, with 197 nM; and SLRRLEQPNVVISLSR, with 93.8 nM. The same measure, in the same setting: then LEISYTGSRPASN[code m]V (not fully specified; printed as LEISYTGSRPASNmV (Murinoglobulin-1 peptide)) […mV (Murinoglobulin-1 peptide)], with 349 nM; and LPQEKYVTSAPMPEPG [… (Ig mu chain C region peptide)], with 562 nM; and VEEDAESEDEDEEDVKLLGMSGK [… (Nucleophosmin peptide)], with 111000 nM. Still for that read-out and setting: for KPSIFHDAKSEIIKGHA [… (Platelet endothelial cell adhesion molecule isoform 4 peptide)] the value was 4960 nM; for PSRYITPDQLADLYK, 2910 nM; for ITPSYVAFTPEGERL [… (78 kDa glucose-regulated protein peptide)], 1890 nM.

These data come from publication PMC8116589, “Distinguishing Signal From Noise in Immunopeptidome Studies of Limiting-Abundance Biological Samples: Peptides Presented by I-A^b in C57BL/6 Mouse Thymus” (Frontiers in Immunology, 2021).
